Assay [1] concerns genetisch hypertensive Ratten. Nature of the assay: Blood pressure lowering in hypertensive rats (indirect sphygmomanometry on the tail). In kind it is in vivo. Conditions: perorale Dosen von 5 mg/kg/Tag und darunter, preferably as hydrochloride. An excerpt: (§1) Die Verbindungen der Erfindung zeigen wertvolle pharmakologische Eigenschaften, in erster Linie hypotensive, antihypertensive und bradykardische Wirkungen, welche unter anderem durch ihre a- und ß-adrenergischblockierenden, vasodilatorischen und ihre hemmenden Effekte auf das zentrale sympatische Nervensystem zustandekommen. Diese Wirkungen können in Tierversuchen, vorzugsweise an Säugetieren, wie Ratten, Katzen oder Hunden, als Testobjekte nachgewiesen werden. Die Tiere können normotensiv oder hypertensiv, z.B. genetisch hypertensive Ratten sein. Die genannten Verbindungen können ihnen enteral oder parenteral, vorzugsweise oral oder intravenös, z.B. durch Gelatine-Kapseln oder in Form von Stärke enthaltenden Suspensionen bzw. wässerigen Lösungen, verabreicht werden. Die verwendete Dosis kann in einem Bereich von ungefähr zwischen 0,01 und 50 mg/kg/Tag, vorzugsweise ungefähr O,1 und 10 mg/kg/Tag, insbesondere ungefähr 1 und 5 mg/kg/Tag liegen. Die blutdrucksenkende Wirkung wird entweder direkt mit einem Katheter, der z.B. in die femurale Arterie des Hundes eingeführt ist, oder indirekt durch Sphygmomanometrie am Rattenschwanz, und einem Uebertragungsinstrument, welches den Blutdruck vor und nach der Verabreichung des Wirkstoffes in mm Hg angibt, registriert. […]

Assay [2] deals with anesthätisierte, bilateral vagotomisierte Bastardhunde. In words: Bradycardic effect in anaesthetised, bilaterally vagotomised dogs with heart rate raised by electrical stimulation. Conditions: Canis lupus familiaris, intravenous, read-out: intravenöse Dosis, nach der die bradykardischen Wirkungen registriert werden können. In kind it is in vivo.
From the text: as §1

Structures can show the parent of a compound that is named as a salt.

For `C[C@H](CCc1ccccc1)NC[C@H](O)[C@H]1COc2ccccc2O1` [ℓ-erythro-2R-[2-(4-Phenyl-2R-butylamino)-1S-hydroxyäthyl]-1,4-benzodioxan-hydrochlorid], in assay [1], the “blutdrucksenkende Wirkung” value is reported as “sehr wirksam”. Moreover, the minimal effective dose in assay [2] was 0.03 mg/kg.

For the origin of these results see patent EP0003359A1, “Specific optical isomers of 2-aminoethyl-1,4-benzodioxanes, process for their preparation and their pharmaceutical compositions” (CIBA-GEIGY AG, priority 1978, dated 1979).
